Results on 37 molecules are retold here after patent US9115101B2 (Genentech, Inc., priority 2012, dated 2015).

The target in this experiment is T1, RORc ligand binding domain (Homo sapiens, UniProt P51449).
T1 construct: host or cells: E. coli
T1 sequence (P51449 269-508 limits assumed): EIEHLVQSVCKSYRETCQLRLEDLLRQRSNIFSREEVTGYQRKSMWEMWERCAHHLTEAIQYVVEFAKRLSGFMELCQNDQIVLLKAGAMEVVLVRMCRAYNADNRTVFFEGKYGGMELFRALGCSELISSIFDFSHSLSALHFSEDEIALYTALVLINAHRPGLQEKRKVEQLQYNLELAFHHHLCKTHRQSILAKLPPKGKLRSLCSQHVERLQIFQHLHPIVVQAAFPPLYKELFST
Nature of the experiment: In Vitro RORc Ligand Binding Assay (25-[3H]hydroxycholesterol radioligand filtration). Particulars: read-out: RORc IC50.

Setting [1] is: In Vitro RORc Ligand Binding Assay, Table 4.

Read-outs that look alike come from different tables or passages of the source.

As to `C[C@H]1CCC(c2ccccc2)S(=O)(=O)N1Cc1ccc(N2CCN(C(=O)C3CC3)CC2)cc1` (single isomer, unassigned) [Example 61], the IC50 under setting [1] came to 61 nM. On the same count and under the same terms, then `C[C@H]1CCC(c2ccccc2)S(=O)(=O)N1Cc1ccc(N[C@H]2C[C@@H](n3cnnc3)C2)cc1F` (stereo partly drawn) [Example 241, [3-Fluoro-4-((3S)-methyl-1,1-dioxo-6-phenyl-[1,2]thiazinan-2-ylmethyl)-phenyl]-(3-[1,2,4]triazol-4-yl-cyclobutyl)-amine], with 85 nM; and `C[C@H]1CCC(c2ccccc2)S(=O)(=O)N1Cc1ccc(C(=O)NC2(C#N)CCC2)cc1` (stereo partly drawn) [Example 369, N-(1-Cyano-cyclobutyl)-4-((3S)-methyl-1,1-dioxo-6-phenyl-[1,2]thiazinan-2-ylmethyl)-benzamide], with 3480 nM; and `O=c1[nH]nc(C2CCN(c3ccc(CN4CCCCC(c5ccccc5)S4(=O)=O)cc3)CC2)o1` (single isomer, unassigned) [Example 343, 5-{1-[4-(1,1-Dioxo-7-phenyl-[1,2]thiazepan-2-ylmethyl)-phenyl]-piperidin-4-yl}-3H-[1,3,4]oxadiazol-2-one], with 449 nM. For `CC(=O)N1CCN(c2ccc(CN3[C@@H](C)CCC(c4ccccc4)S3(=O)=O)c(F)c2)CC1` (single isomer, unassigned) [Example 17], under setting [1], the IC50 was 16 nM. With `C[C@H]1CCC(c2ccccc2)S(=O)(=O)N1Cc1ccc(C(=O)NCC2CCOCC2)cc1` (stereo partly drawn) [Example 292, 4-((3S)-Methyl-1,1-dioxo-6-phenyl-[1,2]thiazinan-2-ylmethyl)-N-(tetrahydro-pyran-4-ylmethyl)-benzamide], under setting [1], the half-maximal inhibitory concentration (IC50) came out at 660 nM. As to `C[C@H]1CCC(c2ccccc2)S(=O)(=O)N1Cc1ccc(N2CCC(C)(n3cnnc3)CC2)cc1F` (single isomer, unassigned) [Example 412], the 50% inhibitory concentration (IC50) was 585 nM. As for `C[C@H]1CCC(c2ccccc2)S(=O)(=O)N1Cc1ccc(C(=O)NC2CCS(=O)(=O)C2)cc1` (stereo partly drawn) [Example 389, N-(1,1-Dioxo-tetrahydro-6-thiophen-3-yl)-4-((3S)-methyl-1,1-dioxo-6-phenyl-[1,2]thiazinan-2-ylmethyl)-benzamide], the IC50 under setting [1] was determined as 3220 nM. Still for that read-out and setting: then `C[C@H]1CCC(c2ccccc2)S(=O)(=O)N1Cc1ccc(C(=O)N[C@@H]2CCN(C(N)=O)C2)cc1` (stereo partly drawn) [Example 391, (R)-3-[4-((3S)-Methyl-1,1-dioxo-6-phenyl-[1,2]thiazinan-2-ylmethyl)-benzoylamino]-pyrrolidine-1-carboxylic acid amide], with 3430 nM. Regarding `CC(=O)N1CCN(c2ccc(CN3C(C)(C)CCC(c4ccccc4)S3(=O)=O)c(F)c2)CC1` (single isomer, unassigned) [Example 13, 1-{4-[4-(3,3-Dimethyl-1,1-dioxo-6-phenyl-[1,2]thiazinan-2-ylmethyl)-3-fluoro-phenyl]-piperazin-1-yl}-ethanone], under setting [1], the 50% inhibitory concentration (IC50) amounted to 142 nM. For the molecule `C[C@H]1CCC(c2ccccc2)S(=O)(=O)N1Cc1ccc(NC2CCN(S(C)(=O)=O)CC2)cc1F` (single isomer, unassigned) [Example 167], under setting [1], the IC50 turned out to be 9 nM. For the molecule `C[C@H](O)C(=O)N1C[C@H]2C[C@@H]1CN2c1ccc(CN2[C@@H](C)CCC(c3ccccc3)S2(=O)=O)c(F)c1` (single isomer, unassigned) [Example 182], the IC50 under setting [1] worked out at 41 nM. Turning to `C[C@H]1CCC(c2ccccc2)S(=O)(=O)N1Cc1ccc(N2CCC(c3nnc[nH]3)CC2)cc1F` (single isomer, unassigned) [Example 226], under setting [1], the 50% inhibitory concentration (IC50) came to 281 nM. Regarding `C[C@H]1CCC(c2ccccc2)S(=O)(=O)N1Cc1ccc(N2CCC(C(N)=O)CC2)cc1F` (single isomer, unassigned) [Example 221], the 50% inhibitory concentration (IC50) under setting [1] turned out to be 85 nM. Consider `C[C@H]1CCC(c2ccccc2)S(=O)(=O)N1Cc1ccc(C(=O)NC2CCOCC2)cc1` (single isomer, unassigned) [Example 267], for which the IC50 under setting [1] was 2810 nM. On to `CC(=O)N1CCN(c2ccc(CN3[C@@H](C)CCCC(c4ccccc4)S3(=O)=O)c(F)c2)CC1` (single isomer, unassigned) [Example 320], for which, under setting [1], the IC50 was 1920 nM. Same read-out and setting: then `C[C@H]1CCC(c2ccccc2)S(=O)(=O)N1Cc1ccc(C(=O)N2CCN(S(C)(=O)=O)CC2)cc1` (stereo partly drawn) [Example 287, (4-Methanesulfonyl-piperazin-1-yl)-[4-((3S)-methyl-1,1-dioxo-6-phenyl-[1,2]thiazinan-2-ylmethyl)-phenyl]-methanone], with 203 nM; and `C[C@H](O)C(=O)N1CCN(c2ccc(CN3CCCCC(c4ccccc4)S3(=O)=O)cc2)CC1` (single isomer, unassigned) [Example 309, 1-{4-[4-(1,1-Dioxo-7-phenyl-[1,2]thiazepan-2-ylmethyl)-phenyl]-piperazin-1-yl}-2-hydroxy-propan-1-one], with 106 nM; and `CC(=O)N1CCN(c2ccc(CN3[C@@H](C)CCC(c4ccc(C#N)cc4)S3(=O)=O)c(F)c2)CC1` (single isomer, unassigned) [Example 173], with 2060 nM. On the same count and under the same terms, then `C[C@H]1CCC(c2ccccc2)S(=O)(=O)N1Cc1ccc(N2CCC(c3ncno3)CC2)cc1F` (single isomer, unassigned) [Example 219], with 42 nM; and `CS(=O)(=O)N1CCC(Oc2ccc(CN3CCCC(c4ccccc4)S3(=O)=O)c(F)c2)CC1` (single isomer, unassigned) [Example 3], with 86 nM; and `COc1ccc(C2CC[C@H](C)N(Cc3ccc(N4CCN(C(C)=O)CC4)cc3F)S2(=O)=O)cc1` (single isomer, unassigned) [Example 176], with 133 nM.

With `CC(=O)N1CCN(c2ccc(CN3CC(C)(C)CC(c4ccccc4)S3(=O)=O)c(F)c2)CC1` (single isomer, unassigned) [Example 168, 1-{4-[4-(4,4-Dimethyl-1,1-dioxo-6-phenyl-[1,2]thiazinan-2-ylmethyl)-3-fluoro-phenyl]-piperazin-1-yl}-ethanone], under setting [1], the half-inhibitory concentration (IC50) worked out at 1000 nM. For `C[C@H]1CCC(c2ccccc2)S(=O)(=O)N1Cc1ccc(C(=O)N[C@@H]2CCN(S(C)(=O)=O)C2)cc1` (stereo partly drawn) [Example 388, N-((R)-1-Methanesulfonyl-pyrrolidin-3-yl)-4-((3S)-methyl-1,1-dioxo-6-phenyl-[1,2]thiazinan-2-ylmethyl)-benzamide], the IC50 under setting [1] came to 3520 nM. Regarding `CC(=O)N1CCN(c2ccc(CN3[C@@H](C)CCC(c4ccccc4)S3(=O)=O)c(F)c2)C[C@@H]1C(N)=O` (stereo partly drawn) [Example 375, (R)-1-Acetyl-4-[3-fluoro-4-((3S)-methyl-1,1-dioxo-6-phenyl-[1,2]thiazinan-2-ylmethyl)-phenyl]-piperazine-2-carboxylic acid amide], under setting [1], the IC50 turned out to be 156 nM.

On to `CC(=O)N1CCN(c2ccc(CN3[C@@H](C(C)C)CCC(c4ccccc4)S3(=O)=O)c(F)c2)CC1` (single isomer, unassigned) [Example 246], for which the IC50 under setting [1] amounted to 30 nM. Regarding `CC(=O)N1CCN(c2ccc(CN3C(C)CCCC(c4ccccc4)S3(=O)=O)c(F)c2)CC1` (single isomer, unassigned) [Example 328, 1-{4-[3-Fluoro-4-(3-methyl-1,1-dioxo-7-phenyl-[1,2]thiazepan-2-ylmethyl)-phenyl]-piperazin-1-yl}-ethanone], under setting [1], the concentration for half-maximal inhibition (IC50) turned out to be 1090 nM.

Regarding `C[C@H]1CCC(c2ccccc2)S(=O)(=O)N1Cc1ccc(N2CCC3(COC3)C2)cc1F` (single isomer, unassigned) [Example 102], the 50% inhibitory concentration (IC50) under setting [1] amounted to 25 nM. Consider `C[C@H]1CCC(c2ccccc2)S(=O)(=O)N1Cc1ccc(OC2CCC(=O)NC2)cc1` (stereo partly drawn) [Example 449, 5-[4-((3S)-Methyl-1,1-dioxo-6-phenyl-[1,2]thiazinan-2-ylmethyl)-phenoxy]-piperidin-2-one], for which the IC50 came out at 852 nM.

With `CNC(=O)[C@H]1CN(C(C)=O)CCN1c1ccc(CN2[C@@H](C)CCC(c3ccccc3)S2(=O)=O)c(F)c1` (stereo partly drawn) [Example 435, (R)-4-Acetyl-1-[3-fluoro-4-((3S)-methyl-1,1-dioxo-6-phenyl-[1,2]thiazinan-2-ylmethyl)-phenyl]-piperazine-2-carboxylic acid methylamide], the half-maximal inhibitory concentration (IC50) came out at 244 nM. On to `COCC(=O)N1CCN(c2ccc(CN3[C@@H](C)CCC(c4ccccc4)S3(=O)=O)c(F)c2)CC1` (single isomer, unassigned) [Example 74], for which the IC50 under setting [1] was 29 nM.

Turning to `C[C@H]1CCC(c2ccccc2)S(=O)(=O)N1Cc1ccc(OC2CCN(S(C)(=O)=O)CC2)cc1` (single isomer, unassigned) [Example 45], the IC50 under setting [1] is 22 nM. On to `CS(=O)(=O)N1CCC(Oc2ccc(CN3CCCC(c4ccccc4)S3(=O)=O)c(F)c2)CC1` (single isomer, unassigned) [Example 55, 2-(2-fluoro-4-((1-(methylsulfonyl)piperidin-4-yl)oxy)benzyl)-6-phenyl-1,2-thiazinane 1,1-dioxide], for which, under setting [1], the IC50 was determined as 86 nM. As to `C[C@H]1CCC(c2ccccc2)S(=O)(=O)N1Cc1ccc(N2CCc3[nH]ncc3C2)cc1F` (single isomer, unassigned) [Example 145], the concentration for half-maximal inhibition (IC50) under setting [1] came out at 242 nM. On the same count and under the same terms, then `CC(=O)N1CCN(c2ccc(CN3[C@@H](C)CCC(c4ccccc4)S3(=O)=O)cc2C#N)CC1` (single isomer, unassigned) [Example 114], with 201 nM; and `CC(=O)N1CCN(c2ccc(CN3CC(C)CCC(c4ccccc4)S3(=O)=O)c(F)c2)CC1` (single isomer, unassigned) [Example 338, 1-{4-[3-Fluoro-4-(4-methyl-1,1-dioxo-7-phenyl-[1,2]thiazepan-2-ylmethyl)-phenyl]-piperazin-1-yl}-ethanone], with 12 nM. On the same count and under the same terms, the result for `C[C@H](O)C(=O)N1CCCN(c2ccc(CN3[C@@H](C)CCC(c4ccccc4)S3(=O)=O)c(F)c2)CC1` (single isomer, unassigned) [Example 93] reads 49 nM.
